# Source: the NIST ThermoML archive (doi:10.1016/j.jct.2011.08.016)
# Numbers after ± are expanded uncertainties.
# Experiment: xn = mol fraction of the nth substance listed
# Details: Liquid, Vibrating tube method
structure (smiles),measurement,setting,value
CCCCCCCCCC [decane] + CCCCCCCC,mass density,"343.12 K, 23000 kPa, x2 = 0.7736",693.03 ± 0.56 kg/m3
same,mass density,"343.12 K, 24000 kPa, x2 = 0.2801",707.17 ± 0.55 kg/m3
same,mass density,"343.12 K, 24000 kPa, x2 = 0.5314",700.89 ± 0.56 kg/m3
same,mass density,"343.12 K, 24000 kPa, x2 = 0.7736",693.84 ± 0.56 kg/m3
same,mass density,"343.12 K, 25000 kPa, x2 = 0.2801",707.92 ± 0.55 kg/m3
same,mass density,"343.12 K, 25000 kPa, x2 = 0.5314",701.69 ± 0.56 kg/m3
same,mass density,"343.12 K, 25000 kPa, x2 = 0.7736",694.61 ± 0.57 kg/m3
same,mass density,"343.13 K, 1000 kPa, x2 = 0.9623",664.48 ± 0.42 kg/m3
same,mass density,"343.13 K, 2000 kPa, x2 = 0.9623",665.59 ± 0.43 kg/m3
same,mass density,"343.13 K, 3000 kPa, x2 = 0.9623",666.77 ± 0.43 kg/m3
same,mass density,"343.13 K, 4000 kPa, x2 = 0.9623",667.86 ± 0.44 kg/m3
same,mass density,"343.13 K, 5000 kPa, x2 = 0.9623",668.95 ± 0.44 kg/m3
same,mass density,"343.13 K, 6000 kPa, x2 = 0.9623",670.06 ± 0.45 kg/m3
same,mass density,"343.13 K, 7000 kPa, x2 = 0.9623",671.17 ± 0.46 kg/m3
same,mass density,"343.13 K, 8000 kPa, x2 = 0.9623",672.27 ± 0.46 kg/m3
same,mass density,"343.13 K, 9000 kPa, x2 = 0.9623",673.35 ± 0.47 kg/m3
same,mass density,"343.13 K, 10000 kPa, x2 = 0.9623",674.41 ± 0.47 kg/m3
same,mass density,"343.13 K, 10990 kPa, x2 = 0.9623",675.48 ± 0.48 kg/m3
same,mass density,"343.13 K, 12000 kPa, x2 = 0.9623",676.54 ± 0.49 kg/m3
same,mass density,"343.13 K, 13000 kPa, x2 = 0.9623",677.56 ± 0.49 kg/m3
same,mass density,"343.13 K, 14000 kPa, x2 = 0.9623",678.58 ± 0.5 kg/m3
same,mass density,"343.13 K, 15000 kPa, x2 = 0.9623",679.6 ± 0.51 kg/m3
same,mass density,"343.13 K, 16000 kPa, x2 = 0.9623",680.56 ± 0.51 kg/m3
same,mass density,"343.13 K, 17000 kPa, x2 = 0.9623",681.54 ± 0.52 kg/m3
same,mass density,"343.13 K, 18000 kPa, x2 = 0.9623",682.46 ± 0.53 kg/m3
same,mass density,"343.13 K, 19000 kPa, x2 = 0.9623",683.41 ± 0.53 kg/m3
same,mass density,"343.13 K, 20000 kPa, x2 = 0.9623",684.31 ± 0.54 kg/m3
same,mass density,"343.13 K, 21000 kPa, x2 = 0.9623",685.19 ± 0.55 kg/m3
same,mass density,"343.13 K, 22000 kPa, x2 = 0.9623",686.05 ± 0.56 kg/m3
same,mass density,"343.13 K, 23000 kPa, x2 = 0.9623",686.9 ± 0.56 kg/m3
same,mass density,"343.13 K, 24000 kPa, x2 = 0.9623",687.72 ± 0.57 kg/m3
same,mass density,"343.13 K, 25000 kPa, x2 = 0.9623",688.5 ± 0.58 kg/m3
same,mass density,"353.08 K, 1000 kPa, x2 = 0.9623",656.17 ± 0.42 kg/m3
same,mass density,"353.08 K, 2000 kPa, x2 = 0.9623",657.39 ± 0.43 kg/m3
same,mass density,"353.08 K, 3000 kPa, x2 = 0.9623",658.62 ± 0.43 kg/m3
same,mass density,"353.08 K, 4000 kPa, x2 = 0.9623",659.85 ± 0.44 kg/m3
same,mass density,"353.08 K, 5000 kPa, x2 = 0.9623",660.99 ± 0.45 kg/m3
same,mass density,"353.08 K, 6000 kPa, x2 = 0.9623",662.16 ± 0.45 kg/m3
same,mass density,"353.08 K, 7000 kPa, x2 = 0.9623",663.38 ± 0.46 kg/m3
same,mass density,"353.08 K, 8000 kPa, x2 = 0.9623",664.55 ± 0.46 kg/m3
same,mass density,"353.08 K, 9000 kPa, x2 = 0.9623",665.71 ± 0.47 kg/m3
same,mass density,"353.08 K, 10000 kPa, x2 = 0.9623",666.85 ± 0.48 kg/m3
same,mass density,"353.08 K, 10990 kPa, x2 = 0.9623",667.94 ± 0.48 kg/m3
same,mass density,"353.08 K, 12000 kPa, x2 = 0.9623",669.1 ± 0.49 kg/m3
same,mass density,"353.08 K, 13000 kPa, x2 = 0.9623",670.16 ± 0.5 kg/m3
same,mass density,"353.08 K, 14000 kPa, x2 = 0.9623",671.22 ± 0.5 kg/m3
same,mass density,"353.08 K, 15000 kPa, x2 = 0.9623",672.32 ± 0.51 kg/m3
same,mass density,"353.08 K, 16000 kPa, x2 = 0.9623",673.37 ± 0.52 kg/m3
same,mass density,"353.08 K, 17000 kPa, x2 = 0.9623",674.4 ± 0.52 kg/m3
same,mass density,"353.08 K, 18000 kPa, x2 = 0.9623",675.38 ± 0.53 kg/m3
same,mass density,"353.08 K, 19000 kPa, x2 = 0.9623",676.37 ± 0.54 kg/m3
same,mass density,"353.08 K, 20000 kPa, x2 = 0.9623",677.3 ± 0.55 kg/m3
same,mass density,"353.08 K, 21000 kPa, x2 = 0.9623",678.26 ± 0.55 kg/m3
same,mass density,"353.08 K, 22000 kPa, x2 = 0.9623",679.19 ± 0.56 kg/m3
same,mass density,"353.08 K, 23000 kPa, x2 = 0.9623",680.04 ± 0.57 kg/m3
same,mass density,"353.08 K, 24000 kPa, x2 = 0.9623",680.91 ± 0.58 kg/m3
same,mass density,"353.08 K, 25000 kPa, x2 = 0.9623",681.75 ± 0.58 kg/m3
same,mass density,"353.12 K, 1000 kPa, x2 = 0.0616",683.44 ± 0.42 kg/m3
same,mass density,"353.12 K, 1000 kPa, x2 = 0.2801",678.06 ± 0.42 kg/m3
same,mass density,"353.12 K, 1000 kPa, x2 = 0.5314",670.91 ± 0.42 kg/m3
same,mass density,"353.12 K, 1000 kPa, x2 = 0.7736",663 ± 0.42 kg/m3
same,mass density,"353.12 K, 2000 kPa, x2 = 0.0616",684.54 ± 0.42 kg/m3
same,mass density,"353.12 K, 2000 kPa, x2 = 0.2801",679.14 ± 0.42 kg/m3
same,mass density,"353.12 K, 2000 kPa, x2 = 0.5314",672.1 ± 0.42 kg/m3
same,mass density,"353.12 K, 2000 kPa, x2 = 0.7736",664.25 ± 0.43 kg/m3
same,mass density,"353.12 K, 3000 kPa, x2 = 0.0616",685.62 ± 0.42 kg/m3
same,mass density,"353.12 K, 3000 kPa, x2 = 0.2801",680.24 ± 0.43 kg/m3
same,mass density,"353.12 K, 3000 kPa, x2 = 0.5314",673.23 ± 0.43 kg/m3
same,mass density,"353.12 K, 3000 kPa, x2 = 0.7736",665.41 ± 0.43 kg/m3
same,mass density,"353.12 K, 4000 kPa, x2 = 0.0616",686.69 ± 0.43 kg/m3
same,mass density,"353.12 K, 4000 kPa, x2 = 0.2801",681.31 ± 0.43 kg/m3
same,mass density,"353.12 K, 4000 kPa, x2 = 0.5314",674.37 ± 0.43 kg/m3
same,mass density,"353.12 K, 4000 kPa, x2 = 0.7736",666.6 ± 0.44 kg/m3
same,mass density,"353.12 K, 5000 kPa, x2 = 0.0616",687.76 ± 0.43 kg/m3
same,mass density,"353.12 K, 5000 kPa, x2 = 0.2801",682.4 ± 0.44 kg/m3
same,mass density,"353.12 K, 5000 kPa, x2 = 0.5314",675.52 ± 0.44 kg/m3
same,mass density,"353.12 K, 5000 kPa, x2 = 0.7736",667.77 ± 0.44 kg/m3
same,mass density,"353.12 K, 6000 kPa, x2 = 0.0616",688.82 ± 0.44 kg/m3
same,mass density,"353.12 K, 6000 kPa, x2 = 0.2801",683.48 ± 0.44 kg/m3
same,mass density,"353.12 K, 6000 kPa, x2 = 0.5314",676.65 ± 0.44 kg/m3
same,mass density,"353.12 K, 6000 kPa, x2 = 0.7736",668.95 ± 0.45 kg/m3
same,mass density,"353.12 K, 7000 kPa, x2 = 0.0616",689.85 ± 0.44 kg/m3
same,mass density,"353.12 K, 7000 kPa, x2 = 0.2801",684.52 ± 0.45 kg/m3
same,mass density,"353.12 K, 7000 kPa, x2 = 0.5314",677.77 ± 0.45 kg/m3
same,mass density,"353.12 K, 7000 kPa, x2 = 0.7736",670.08 ± 0.45 kg/m3
same,mass density,"353.12 K, 8000 kPa, x2 = 0.0616",690.88 ± 0.45 kg/m3
same,mass density,"353.12 K, 8000 kPa, x2 = 0.2801",685.57 ± 0.45 kg/m3
same,mass density,"353.12 K, 8000 kPa, x2 = 0.5314",678.86 ± 0.46 kg/m3
same,mass density,"353.12 K, 8000 kPa, x2 = 0.7736",671.21 ± 0.46 kg/m3
same,mass density,"353.12 K, 9000 kPa, x2 = 0.0616",691.9 ± 0.45 kg/m3
same,mass density,"353.12 K, 9000 kPa, x2 = 0.2801",686.58 ± 0.46 kg/m3
same,mass density,"353.12 K, 9000 kPa, x2 = 0.5314",679.93 ± 0.46 kg/m3
same,mass density,"353.12 K, 9000 kPa, x2 = 0.7736",672.31 ± 0.47 kg/m3
same,mass density,"353.12 K, 10000 kPa, x2 = 0.0616",692.88 ± 0.46 kg/m3
